Results on 99 molecules are retold here after ChEMBL document CHEMBL3507680, “University of Dundee, Gates Library screen for HepG2 cell viability”.

The data set is described as follows: Human HepG2 cell viability assay in 384 well format. The data set is classed as toxicity, cell-based. On the set-up: dose 125 nL, time 70.5 hour; concentration not given beside the values. The settings on record: HepG2 cells, read-out: Inhibition.
For the molecule `CCc1cnc(CN(C(C)=O)C2CCN(CCc3ccccn3)C2)o1` (centres undefined), the cytotoxicity at 70.5 h came out at 1.82%.

Regarding `CC(CS(C)(=O)=O)N(C(=O)CCc1ccsc1)C1CC1` (centres undefined), the cytotoxicity at 70.5 h is -4.58%.

With `O=C1NCC(C(=O)Nc2ncc(Cc3ccc(F)cc3)s2)N1` (centres undefined), the cytotoxicity at 70.5 h is -3.14%.

With `COc1ccc(F)cc1C[S+]([O-])CC(=O)NCC(C)C` (centres undefined), the cytotoxicity at 70.5 h was -0.815%.

On to `Cc1nc(CN2CCOCC3(CCN(c4ccccn4)C3)C2)cs1` (centres undefined), for which the cytotoxicity at 70.5 h is -40.4%.

With `CC(C)NC(=O)N1CCC2(CC1)C(=O)NCCN2Cc1ccccc1`, the cytotoxicity at 70.5 h was -7.72%.

`Cc1cccc(-c2noc(CN3CC(n4cccn4)C3)n2)c1`: the cytotoxicity at 70.5 h is -8.11%.

Regarding `CN1C(=O)CC(c2ccncc2)C12CCN(c1ncccn1)CC2` (centres undefined), the cytotoxicity at 70.5 h was -0.583%.

In the case of `CNc1nc2c(s1)C(c1ccc(Cl)cc1Cl)CC(=O)N2` (centres undefined), the cytotoxicity at 70.5 h was -5.21%.

As for `CCOC(=O)Cn1cccc(S(=O)(=O)N2CCCC2)c1=O`, the cytotoxicity at 70.5 h is -26.6%.

As to `Cc1ccc2c(c1)c(C)cc(=O)n2CC(=O)O`, the cytotoxicity at 70.5 h was -2.86%.

Turning to `O=C(CN1CCCCC1Cn1cccn1)NC1CCN(C2CC2)CC1` (centres undefined), the cytotoxicity at 70.5 h is -7.07%.

For `Cc1c(F)cccc1CN1CCn2nc(CNC(=O)N(C)C)cc2C1`, the cytotoxicity at 70.5 h worked out at 20%.

In the case of `CC(C)(C)c1cc(NC(=O)CN2CCc3cncnc3C2)on1`, the cytotoxicity at 70.5 h was found to be 3.44%.

For the molecule `CCn1cc(CNC(=O)CCc2nnc(-c3ccc(C)s3)o2)cn1`, the cytotoxicity at 70.5 h came to 10%.

In the case of `O=C1CC[C@H]2CN(c3ncc(F)cn3)CC[C@H]2N1CCc1ccccn1`, the cytotoxicity at 70.5 h is -5.32%.

In the case of `CNS(=O)(=O)Cc1ccc(CNC(=O)c2cccc(C)n2)cc1`, the cytotoxicity at 70.5 h was -1.09%.

On to `CNC(=O)c1ccc(S(=O)(=O)NCc2cccnc2N(C)C)cc1`, for which the cytotoxicity at 70.5 h is -6.39%.

For the molecule `COCC(=O)N1CCC(O)(CN2CCN(c3ccccc3)CC2)C1` (centres undefined), the cytotoxicity at 70.5 h is -1.6%.

In the case of `O=C(O)[C@]12CCCN(CC3CCOC3)C[C@H]1CN(c1ncccn1)C2` (some centres undefined), the cytotoxicity at 70.5 h was -5.74%.

As for `Cn1nnc2c1C(COCC1CC1)CN(C(=O)CC1=CCCCC1)C2` (centres undefined), the cytotoxicity at 70.5 h was -2%.

Regarding `c1cc(-c2cncnc2)cc(-c2ccn(CC3CCNC3)n2)c1` (centres undefined), the cytotoxicity at 70.5 h is -15.7%.

For the molecule `Cc1cn2c(CN(C)C(=O)c3nccnc3N)c(C)nc2s1`, the cytotoxicity at 70.5 h stood at 0.596%.

Regarding `Cc1noc(C(C)N2CCN(c3ccc(C#N)cn3)CC2)n1` (centres undefined), the cytotoxicity at 70.5 h was -10.1%.

On to `CC(CCNC(=O)N1CCC1)N(C)C(=O)OC(C)(C)C` (centres undefined), for which the cytotoxicity at 70.5 h is -0.749%.

For the molecule `Cc1cccc(C(C(=O)N(C)Cc2ccon2)N(C)C)c1` (centres undefined), the cytotoxicity at 70.5 h is -0.0384%.

Regarding `Cc1ncc(CNc2ccc(C(=O)NCc3ccco3)cc2C)s1`, the cytotoxicity at 70.5 h turned out to be 1.95%.

Take `CC(=O)N(C)Cc1ccccc1NC(=O)c1cnn(C)c1C`: the cytotoxicity at 70.5 h is -0.121%.

On to `O=C(CNC(=O)c1ccc2c(c1)CCC2)NCCNc1ncccn1`, for which the cytotoxicity at 70.5 h is -14.4%.

For `CCC1CCCCN1Cc1ncc(C(C)(C)C)o1` (centres undefined), the cytotoxicity at 70.5 h was -7.2%.

In the case of `CC[C@H](N)Cn1nc(-c2cccs2)oc1=O`, the cytotoxicity at 70.5 h is -26.2%.

On to `Cc1ncc(CN2CCCC(O)(c3ccc(F)cc3)CC2)n1C` (centres undefined), for which the cytotoxicity at 70.5 h was -5.42%.

Regarding `CC(C)c1cc(C(=O)NCCCN(C)C)nc(N2CCCC2)n1`, the cytotoxicity at 70.5 h is -8.44%.

On to `O=S(=O)(N1CCCC1)N1CCCCC1CCc1ccccc1` (centres undefined), for which the cytotoxicity at 70.5 h is -5.36%.

With `CC(C)Nc1nc2c(c(N(C)C)n1)CCN(C(=O)c1cc[nH]n1)CC2`, the cytotoxicity at 70.5 h is -10.4%.

For `COc1c(CNCc2ccc(N(C)C)nc2)c(C)nn1C`, the cytotoxicity at 70.5 h came out at 24.3%.

As for `Cc1ccc(Cn2c(=O)[nH]c3cccnc3c2=O)cc1`, the cytotoxicity at 70.5 h was -8.02%.

Take `CCN1CCN(C(=O)NCc2cc[nH]n2)CC1`: the cytotoxicity at 70.5 h was -8.83%.

On to `Cc1ccc(OCC(=O)NC2CC2)nc1`, for which the cytotoxicity at 70.5 h is -2.52%.

With `CC(NCc1cccc(S(=O)(=O)N(C)C)c1)c1ccccn1` (centres undefined), the cytotoxicity at 70.5 h was -6.92%.

`CCc1ccccc1OCC(=O)N1CCOCC1c1ncon1` (centres undefined): the cytotoxicity at 70.5 h was 28.4%.

For `CCN1CCCC1CN(Cc1cc[nH]n1)CC1CCN(CCOC)CC1` (centres undefined), the cytotoxicity at 70.5 h was found to be 6.24%.

As to `CSc1ccc(C(C(=O)O)N2CCCC2)cc1` (centres undefined), the cytotoxicity at 70.5 h is -7.97%.

Consider `CN1CC(C(=O)NC2(c3cccc(F)c3)CCOCC2)CC1=O` (centres undefined), for which the cytotoxicity at 70.5 h is -7.9%.

As to `Cc1nc(C)n(CC2CCCN2CCCOc2ccc(F)cc2)n1` (centres undefined), the cytotoxicity at 70.5 h was 6.79%.

Turning to `COc1cc(CNCC(O)c2ccc(F)cc2F)cc2c1OCO2` (centres undefined), the cytotoxicity at 70.5 h was 4.59%.

Consider `CCOc1ncccc1CNC(=O)c1c(C)oc(C)c1C`, for which the cytotoxicity at 70.5 h was -9.43%.

In the case of `CN(CCO)C[C@@H]1CN(C(=O)c2cccc(OC(F)F)c2)C[C@@H]1CO`, the cytotoxicity at 70.5 h was -5.3%.

Regarding `CN(c1ncc(C(=O)NCc2ccccc2)c(N)n1)C1CCCCC1`, the cytotoxicity at 70.5 h was determined as 18%.

For the molecule `CC(NC(=O)N1CCS(=O)(=O)CC1)c1ccc(F)cc1Cl` (centres undefined), the cytotoxicity at 70.5 h was -1.2%.

For `NC(=O)c1cc(C2CCCN(CCOc3cccc(F)c3)C2)n[nH]1` (centres undefined), the cytotoxicity at 70.5 h is 13%.

Consider `Cc1nc(CC(=O)N2CCCN(c3ccc(F)cc3)CC2)cs1`, for which the cytotoxicity at 70.5 h is -3.38%.

Regarding `CCCNS(=O)(=O)c1ccc(C(=O)NC(CC)c2cnn(C)c2)cc1` (centres undefined), the cytotoxicity at 70.5 h was -4.79%.

On to `CCOC(=O)N(C)CC(=O)NCCc1coc(-c2ccc(C)cc2)n1`, for which the cytotoxicity at 70.5 h was -8.2%.

In the case of `COCCN1C(=O)CO[C@H]2CN(S(=O)(=O)c3ccccc3)C[C@H]21`, the cytotoxicity at 70.5 h is -12.7%.

`O=C1CCC(c2ccccc2)(c2ccccc2)CN1CCO`: the cytotoxicity at 70.5 h was -3.47%.

For `O=C(CC1Cn2ncnc2NC1=O)Nc1ccccc1` (centres undefined), the cytotoxicity at 70.5 h was -8.16%.

In the case of `O=C(CS(=O)(=O)Cc1cc(Cl)c2c(c1)OCO2)N1CCCCCC1`, the cytotoxicity at 70.5 h was -2.51%.

On to `O=C(NS(=O)(=O)c1ccc(Cl)cc1F)c1cccc2c1OCCO2`, for which the cytotoxicity at 70.5 h is -108%.

As to `Cc1cccc(OC(C)C(=O)NCC2(N(C)C)CCCC2)c1` (centres undefined), the cytotoxicity at 70.5 h is -8.19%.

Turning to `O=C(N1CCSCC1)C1(O)Cc2ccccc2C1`, the cytotoxicity at 70.5 h was -2.54%.

Turning to `CCc1nc(Cn2cncc(Br)c2=O)no1`, the cytotoxicity at 70.5 h is -8.84%.

For `CCOCC(=O)Nc1nccn1Cc1ccc(Br)cc1`, the cytotoxicity at 70.5 h is -5.58%.

With `CN1CCC(N(C)C(=O)c2cnc3c(cnn3C3CCCC3)c2)CC1`, the cytotoxicity at 70.5 h is -7.87%.

As for `c1ccc(CCN2CCC(OCC3CCCCO3)CC2)nc1` (centres undefined), the cytotoxicity at 70.5 h worked out at 5.3%.

With `Cc1nc(CC(=O)N2CCCC(N(C)Cc3ccccc3)C2)cs1` (centres undefined), the cytotoxicity at 70.5 h was determined as 1.48%.

In the case of `CN(C)S(=O)(=O)N1CCN(c2nccc(C(F)(F)F)n2)CC1`, the cytotoxicity at 70.5 h is -0.547%.

Take `COC(=O)c1ccc(CNC(C)(C)c2ccccc2OC)o1`: the cytotoxicity at 70.5 h is -6.94%.

Regarding `Cc1cc(C(=O)N(C)Cc2ccccc2OCC(C)C)cc(=O)[nH]1`, the cytotoxicity at 70.5 h turned out to be 15.6%.

For the molecule `Cc1cc(C)n(CC2CCCN2CCCS(C)(=O)=O)n1` (centres undefined), the cytotoxicity at 70.5 h was -7.95%.

Regarding `O=S(=O)(Nc1cn[nH]c1)c1ccc(F)c(Br)c1`, the cytotoxicity at 70.5 h was -4.68%.

Take `CN(Cc1cccnc1)[C@@H]1CN(c2ccccn2)[C@@H]2CCCO[C@H]12`: the cytotoxicity at 70.5 h is -9.04%.

Turning to `O=C(NC1CCc2nccn2C1)c1ccc(NC2CC2)nc1` (centres undefined), the cytotoxicity at 70.5 h is -12%.

As for `O=C(CCn1cncn1)N1C[C@H]2CC[C@@H]1CN(Cc1cccnc1)C2`, the cytotoxicity at 70.5 h is -9.48%.

For `COCCCN1CC2(CCN(C(=O)c3ccc(=O)n(C)c3)CC2)CC1=O`, the cytotoxicity at 70.5 h was -9.99%.

Turning to `CN1CCN(c2cc(CCNC(=O)C3CCC3)nc(C3CC3)n2)CC1`, the cytotoxicity at 70.5 h was -6.65%.

On to `Cc1nn(CC(C)C)c(N(C)C)c1CNCc1ccc(CO)c(F)c1`, for which the cytotoxicity at 70.5 h was determined as 1.46%.

As for `COCCN(CCOC)c1ncc(C#N)cc1Cl`, the cytotoxicity at 70.5 h is -15.8%.

For `COCCN1CCC(c2nc3c([nH]2)CCCNC3=O)CC1`, the cytotoxicity at 70.5 h is -8.24%.

Consider `COCCNc1nc(NCCc2ccccc2)nc2nccnc12`, for which the cytotoxicity at 70.5 h is -1.44%.

With `COc1cc(N2CCC(c3nccn3CCCN(C)C)CC2)nc(N)n1`, the cytotoxicity at 70.5 h is -1.61%.

Turning to `CCc1ccccc1OCCN(C)C(=O)CN1CCCC1`, the cytotoxicity at 70.5 h was -6.67%.

For `CC(C)(C)c1csc(CN2CCN(S(=O)(=O)c3cccnc3)CC2)n1`, the cytotoxicity at 70.5 h was -14.8%.

In the case of `COc1ccc(C(=O)N2C[C@@H](C(=O)O)[C@H](c3ccccc3C)C2)c(O)c1`, the cytotoxicity at 70.5 h is -6.81%.

Turning to `O=C(O)C[C@@H]1CCN(C(=O)c2cccs2)C[C@@H]1CCN1CCCCC1`, the cytotoxicity at 70.5 h is -3.9%.

For `C=Cc1cccc(CN2C[C@H]3CC[C@@H]2CN(Cc2c(C)noc2C)C3)c1`, the cytotoxicity at 70.5 h is -0.99%.

Regarding `CC(C)COC(C)C(=O)NCc1ccc(Cn2ccnc2)cc1` (centres undefined), the cytotoxicity at 70.5 h was -8.31%.

In the case of `CO[C@@H]1CN(c2ccccc2)S(=O)(=O)[C@@]12CCN(Cc1cncs1)C2`, the cytotoxicity at 70.5 h was -2.7%.

Regarding `Cc1ccc(CN2CCC3(C2)C(=O)N(CC2CC2)c2ccccc23)s1` (centres undefined), the cytotoxicity at 70.5 h is -8.57%.

In the case of `Cc1cnn(Cc2cc(F)ccc2F)c1NC(=O)C1CCOCC1`, the cytotoxicity at 70.5 h was 1.07%.

As for `CCS(=O)(=O)CCNC(=O)c1cc2n(n1)CCCO2`, the cytotoxicity at 70.5 h was -5.74%.

In the case of `O=C(NCC1CC1)C1CN(C(=O)NC2CCCC2)Cc2cncn2C1` (centres undefined), the cytotoxicity at 70.5 h is -6.07%.

In the case of `O=C(Nc1cnccn1)[C@H]1C[C@H]2OCC[C@H]2N(c2ncc(F)cn2)C1`, the cytotoxicity at 70.5 h was -11.1%.

Turning to `Cc1nccn1C1CCCN(C(=O)c2ccc(N(C)C)nn2)C1` (centres undefined), the cytotoxicity at 70.5 h is -4.18%.

`CN(C)C(=O)C1OC2(CCN(c3ncc(F)cn3)CC2)c2ccccc21` (centres undefined): the cytotoxicity at 70.5 h worked out at 3.5%.

`CCN(Cc1cccnc1)CC1(C)Cc2c(N)nc(N)nc2O1` (centres undefined): the cytotoxicity at 70.5 h is -1.96%.

In the case of `CC(C)c1cc(NC(=O)CN2CCCC2c2noc(C(C)C)n2)on1` (centres undefined), the cytotoxicity at 70.5 h was -12%.

Take `O=C(c1cccc2c1OCO2)N1CCCC(n2cccn2)C1` (centres undefined): the cytotoxicity at 70.5 h was -9.01%.

Turning to `O=C(CCc1cc(O)no1)N1CCCC(COc2ccccc2F)C1` (centres undefined), the cytotoxicity at 70.5 h was -20.7%.
